Experimental data from patent US8580784B2, “Method for treating a disease related to the glucocorticoid receptor” (Santen Pharmaceutical Co., Ltd., priority 2006, dated 2013).

Target: T1, Recombinant human GR (Homo sapiens, UniProt P04150)
T1 construct: purchased Invitrogen P2816
T1 sequence (P04150 1-777): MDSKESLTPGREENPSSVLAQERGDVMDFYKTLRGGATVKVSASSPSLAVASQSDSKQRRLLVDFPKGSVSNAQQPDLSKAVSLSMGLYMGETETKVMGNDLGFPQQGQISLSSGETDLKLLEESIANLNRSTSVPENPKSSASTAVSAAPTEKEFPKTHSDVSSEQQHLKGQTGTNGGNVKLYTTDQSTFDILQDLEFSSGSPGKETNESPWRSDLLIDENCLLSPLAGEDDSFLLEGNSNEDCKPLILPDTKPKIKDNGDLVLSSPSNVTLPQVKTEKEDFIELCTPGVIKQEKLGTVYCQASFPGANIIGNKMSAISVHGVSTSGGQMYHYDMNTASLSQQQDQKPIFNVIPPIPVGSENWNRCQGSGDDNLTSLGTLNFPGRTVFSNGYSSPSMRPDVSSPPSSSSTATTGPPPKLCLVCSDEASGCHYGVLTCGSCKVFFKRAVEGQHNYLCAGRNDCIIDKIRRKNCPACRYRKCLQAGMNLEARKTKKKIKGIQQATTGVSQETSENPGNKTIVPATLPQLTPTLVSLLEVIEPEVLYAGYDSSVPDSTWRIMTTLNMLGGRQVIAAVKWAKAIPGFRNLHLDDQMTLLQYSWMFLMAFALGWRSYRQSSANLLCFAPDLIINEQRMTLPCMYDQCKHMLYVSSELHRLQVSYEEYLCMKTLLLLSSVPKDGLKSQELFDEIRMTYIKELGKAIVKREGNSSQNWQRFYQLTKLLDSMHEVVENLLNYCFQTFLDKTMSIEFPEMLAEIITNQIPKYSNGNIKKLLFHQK
Experiment: Evaluation test for binding activity to glucocorticoid receptor: receptor competitor assay by fluorescence polarization (Invitrogen GR competitor assay kit, cat No. P2816)
Conditions: 20 μM test compound solution, 10 μL per well plus 5 μL 4×GS1 and 5 μL 4×GR solution; room temperature 2 to 4 hours; a ratio of 100% or more is indicated by 100%
Protocol: A detailed explanation of this matter will be described in the section of “Pharmacological Test” in Examples described below. In order to find the usefulness of the present compound as a pharmaceutical, a glucocorticoid receptor competitor assay was carried out by a fluorescence polarization method by using a glucocorticoid receptor competitor assay kit (manufactured by Invitrogen, cat No. P2816) to study the glucocorticoid receptor binding activity of the present compound.
1. Evaluation Test for Binding Activity to Glucocorticoid Receptor (hereinafter referred to as “GR”)
In order to evaluate a binding activity to GR, a receptor competitor assay was carried out by a fluorescence polarization method. In the assay, a GR competitor assay kit (manufactured by Invitrogen, cat No. P2816) was used, and a procedure was carried out according to the protocol attached to the kit. Hereinafter, the specific method will be described.
(Preparation of Reagents)
GR screening buffer: A buffer containing 10 mM potassium phosphate (pH 7.4), 20 mM sodium molybdate (Na2MoO4), 0.1 mM ethylene diamine tetraacetic acid (EDTA), 5 mM dithiothreitol (DTT), 0.1 mM stabilizing peptide and 2% dimethylsulfoxide was prepared.
4×GS1 solution: Fluormone™ GS1, which is a fluorescent glucocorticoid ligand, was diluted with GR screening buffer, whereby a 4 nM solution was prepared.
4×GR solution: Recombinant human GR was diluted with GR screening buffer, whereby a 16 nM solution was prepared.
(Preparation of Test Compound Solution)
After a test compound was dissolved in dimethylsulfoxide, the resulting solution was diluted with GR screening buffer, whereby a 20 μM test compound solution was prepared.
(Test Method and Measurement Method)
1) The test compound solution was added in an amount of 10 μL into each well of a 384-well plate, and then, 4×GS1 solution and 4×GR solution were added in an amount of 5 μL into each well, respectively.
2) The plate was incubated in a dark place at room temperature for 2 to 4 hours.
3) By using a multimode plate reader, Analyst™ HT (manufactured by LJL Biosystems), fluorescence polarization of each well was measured. As the blank, a well containing GR screening buffer in place of the test compound and 4×GS1 solution was used.
4) The same procedure as that in the above 1) to 3) was carried out except that GR screening buffer was used in place of the test compound solution, and the obtained result was taken as the negative control.
5) The same procedure as that in the above 1) to 3) was carried out except that 2 mM dexamethasone was used in place of the test compound solution, and the obtained result was taken as the positive control.
(Calculation Equation of GR Binding Ratio)
A GR binding ratio (%) was calculated from the following equation. GR binding ratio(%)=100×[1−(fluorescence polarization of test compound solution−fluorescence polarization of positive control solution)/(fluorescence polarization of negative control solution−fluorescence polarization of positive control solution)] (Test Results and Discussion)

## COc1ccccc1NCc1c(-c2ccc(OC(=O)Nc3cccnc3)cc2OC)ccc2c1C(C)=CC(C)(C)N2 [Compound 4-3, 5-(2-Methoxyphenylaminomethyl)-6-[2-methoxy-4-(pyridin-3-ylaminocarbonyloxy)phenyl]-2,2,4-trimethyl-1,2-dihydroquioline]
  inhibition at 20 µM: 91%
